Like-named read-outs stand apart in the source and are kept apart here. One block for each molecule: values may come before it.
How the values were obtained:
IL6 = assay: IL-6 Quantification Assay (ELISA), LPS-stimulated RAW 264.7; assay type: cell-based; set-up: inhibition: dose or concentration left out as unconfirmed; details: Mus musculus, RAW264.7; read-out: IL-6: % inh.
[1] = test system: MiaPaca-2 (expressing KRAS G12C mutant); assay: Proliferation Assay (Cell Viability Assay); assay type: cell-based; details: Homo sapiens, MIA PaCa-2
Method in brief: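 MiaPaca-2 cells (KRAS G12C) were grown in DMEM-high glucose with 10% FBS, seeded at 2000–5000 cells/well and cultured overnight. Compounds were added at 10 μM final, or as serial dilutions for IC50, in 0.3% DMSO/10% FBS for 2–4 days at 37 °C, 5% CO2. Viability was measured with CellTiter 96 Aqueous One and % inhibition calculated.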

KRas G12D mutant = assay: Ras GTP Binding Domain Inhibition Assay (Ras Superfamily Assay); details: at 20 μM; for KRas G12D mutant + SOS: % inh.: with SOS; for KRas G12D mutant: % inh.: without SOS
Method in brief: (§1)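 Ni-plate capture of His-tagged protein (10-30 μg/mL, o/n 4° C); cpd 20 μM or dilution series, 1% DMSO, 3 h RT ± Sos 556-1049 last h; 100 nM Cy-labelled GTP 45 min RT; 3× wash; fluorescence read.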

KRas wild type = assay: as above; details: at 20 μM; for KRas wild type + SOS: % inh.: with SOS; for KRas wild type: % inh.: without SOS
Method in brief: as §1

[2] = read-out: Proliferation in MiaPaca-2: IC50

Compound: COc1cc(Nc2nc(-c3nccn3C)nn3cc(-c4ccn(C)n4)c(C)c23)ncc1F [Compound 237, N-(5-Fluoro-4-methoxypyridin-2-yl)-5-methyl-2-(1-methyl-1H-imidazol-2-yl)-6-(1-methyl-1H-pyrazol-3-yl)pyrrolo[2,1-f][1,2,4]triazin-4-amine]
inhibition (IL6): 0% | IC50 [1, 2]: < 150 nM | KRas G12D mutant + SOS: % inh. (KRas G12D mutant): D (D = 76-100% inhibition) | KRas G12D mutant: % inh. (KRas G12D mutant): D (D = 76-100% inhibition) | KRas wild type + SOS: % inh. (KRas wild type): D (D = 76-100% inhibition) | KRas wild type: % inh. (KRas wild type): D (D = 76-100% inhibition)

Compound: COc1cc(Nc2nc(-c3nccn3C)nn3cc(-c4ccn(C)n4)c(C)c23)ncc1C1CC1 [Compound 238, N-(5-Cyclopropyl-4-methoxypyridin-2-yl)-5-methyl-2-(1-methyl-1H-imidazol-2-yl)-6-(1-methyl-1H-pyrazol-3-yl)pyrrolo[2,1-f][1,2,4]triazin-4-amine]
inhibition (IL6): 75 to 100% | IC50 ([1]; Proliferation assay, MiaPaca-2, read-out: MiaPaca-2 IC50 (nM) Pancreatic): 1 to 10 nM | IC50 [1, 2]: < 150 nM | KRas G12D mutant + SOS: % inh. (KRas G12D mutant): D (D = 76-100% inhibition) | KRas G12D mutant: % inh. (KRas G12D mutant): D (D = 76-100% inhibition) | KRas wild type + SOS: % inh. (KRas wild type): D (D = 76-100% inhibition) | KRas wild type: % inh. (KRas wild type): D (D = 76-100% inhibition)

Compound: Cc1cnc2c(c1)CCN2c1nc(-c2nccn2C)nn2cc(-c3ccn(C)n3)c(C)c12 [Compound 239, 5-Methyl-2-(1-methyl-1H-imidazol-2-yl)-6-(1-methyl-1H-pyrazol-3-yl)-4-(5-methyl-2,3-dihydro-1H-pyrrolo[2,3-b]pyridin-1-yl)pyrrolo[2,1-f][1,2,4]triazine]
inhibition (IL6): 50 to 74% | IC50 [1, 2]: < 150 nM | KRas G12D mutant + SOS: % inh. (KRas G12D mutant): D (D = 76-100% inhibition) | KRas G12D mutant: % inh. (KRas G12D mutant): D (D = 76-100% inhibition) | KRas wild type + SOS: % inh. (KRas wild type): D (D = 76-100% inhibition) | KRas wild type: % inh. (KRas wild type): D (D = 76-100% inhibition)

More lines, main results first:

IC50 [1, 2]: < 150 nM | KRas G12D mutant + SOS: % inh. (KRas G12D mutant): D (D = 76-100% inhibition) | KRas G12D mutant: % inh. (KRas G12D mutant): D (D = 76-100% inhibition) | KRas wild type + SOS: % inh. (KRas wild type): D (D = 76-100% inhibition) | KRas wild type: % inh. (KRas wild type): D (D = 76-100% inhibition)
Compound: Cc1c(-c2ccn(C)n2)cn2nc(-c3nccn3C)nc(Nc3cc(C(C)(C)O)ccn3)c12 [Compound 240, 2-(2-((5-Methyl-2-(1-methyl-1H-imidazol-2-yl)-6-(1-methyl-1H-pyrazol-3-yl)pyrrolo[2,1-f][1,2,4]triazin-4-yl)amino)pyridin-4-yl)propan-2-ol]
inhibition (IL6): 50 to 74%

IC50 [1, 2]: > 1000 nM | KRas G12D mutant + SOS: % inh. (KRas G12D mutant): D (D = 76-100% inhibition) | KRas G12D mutant: % inh. (KRas G12D mutant): D (D = 76-100% inhibition) | KRas wild type + SOS: % inh. (KRas wild type): D (D = 76-100% inhibition) | KRas wild type: % inh. (KRas wild type): D (D = 76-100% inhibition)
Compound: Cc1c(-c2ccn(C)n2)cn2nc(-c3nccn3C)nc(Nc3ccc(C(C)(C)O)cn3)c12 [Compound 241, 2-(6-((5-Methyl-2-(1-methyl-1H-imidazol-2-yl)-6-(1-methyl-1H-pyrazol-3-yl)pyrrolo[2,1-f][1,2,4]triazin-4-yl)amino)pyridin-3-yl)propan-2-ol]
inhibition (IL6): 25 to 49%

IC50 [1, 2]: > 1000 nM | KRas G12D mutant + SOS: % inh. (KRas G12D mutant): A (A = 1-25% inhibition) | KRas G12D mutant: % inh. (KRas G12D mutant): B (B = 26-49% inhibition) | KRas wild type + SOS: % inh. (KRas wild type): 0 (0 = 0% inhibition) | KRas wild type: % inh. (KRas wild type): A (A = 1-25% inhibition)
Compound: Cc1c(-c2ccn(C)n2)cn2nc(-c3nccn3C)nc(Nc3ccc(-n4ccnc4)cn3)c12 [Compound 242, N-(5-(1H-Imidazol-1-yl)pyridin-2-yl)-5-methyl-2-(1-methyl-1H-imidazol-2-yl)-6-(1-methyl-1H-pyrazol-3-yl)pyrrolo[2,1-f][1,2,4]triazin-4-amine]
inhibition (IL6): 25 to 49%

IC50 [1, 2]: < 150 nM | KRas G12D mutant + SOS: % inh. (KRas G12D mutant): D (D = 76-100% inhibition) | KRas G12D mutant: % inh. (KRas G12D mutant): D (D = 76-100% inhibition) | KRas wild type + SOS: % inh. (KRas wild type): D (D = 76-100% inhibition) | KRas wild type: % inh. (KRas wild type): D (D = 76-100% inhibition)
Compound: Cc1c(-c2ccn(C)n2)cn2nc(-c3nccn3C)nc(Nc3ccc(-n4ccnc4C)cn3)c12 [Compound 243, 5-Methyl-N-(5-(2-methyl-1H-imidazol-1-yl)pyridin-2-yl)-2-(1-methyl-1H-imidazol-2-yl)-6-(1-methyl-1H-pyrazol-3-yl)pyrrolo[2,1-f][1,2,4]triazin-4-amine]
inhibition (IL6): 0%

— patent publication US12459951B2, “Compounds that interact with RAS superfamily proteins for treatment of cancers, inflammatory diseases, rasopathies, and fibrotic disease” (SHY Therapeutics, LLC, priority 2022, dated 2025)
